Reference: patent US20140045809A1, “CORROLES FOR NEUROPROTECTION AND NEURORESCUE” (priority 2008, published 2014)
Entries after “also recorded” stand apart in the source; their conditions may differ.

Legend:
[1] = SOD activity (catalytic decomposition of superoxide anion radical), cytochrome C assay; type: biochemical
Procedure: SOD activity (enzyme-like catalytic decomposition of superoxide anion radical) of the corroles 1C-Fe, 6C-Fe, 1C-Mn, 1C-Cu, 2C-Mn and 3C-Mn was examined via the cytochrome C assay. The catalytic rate constants for decomposition of peroxynitrite (PN) by the newly prepared iron corrole 6C-Fe and manganese corrole 3C-Mn were determined via stopped-flow kinetics as previously described for corroles 1C-Fe, 1C-Mn, and 2C-Mn (Mahammed and Gross, 2006; Gershman et al., 2007). These tests are performed in order to estimate how electronic and structural variables affect reactivity, which is a crucial factor for design of new complexes.

[2] = Peroxynitrite decomposition rates by manganese corroles (Example 2); type: biochemical; conditions: 385 μM peroxynitrite, pH 7.4, 25° C., absorbance at 302 nm; Table 2
Procedure: The investigations were performed by examining the decay of 385 μM peroxynitrite at pH 7.4 and 25° C. in the presence and absence of various amounts of Mn corrole catalysts 2C-Mn, 2C′-Mn, 2C″-Mn, 3C-Mn and 4C-Mn. The differences between 2C-Mn, 2C′-Mn, and 2C″-Mn is in the identity of the 10-aryl group, which is C6F5, para-anisyl, and phenyl, respectively. The results (one example using 4C-Mn is shown in FIG. 1) were obtained by monitoring changes in absorbance at 302 nm, the λmax of peroxynitrite. The catalytic performances of five of the above compounds were tested; and the thus elucidated kcat values are presented in Table 2. Importantly, in sharp contrast with the corroles, none of the structurally similar manganese (III) porphyrin complexes affected the decomposition of peroxynitrite by any extent (not shown).

RIN-m cells = assay: Protection of RIN-m beta cells against H2O2 toxicity (MTT); type: cell-based, rat; conditions: H2O2 150 μM
Procedure: Two insulin-secreting beta cell lines, rat insulinoma (INS-1E) and RIN-m cells, were used to examine the protective effect of corrole 1C-Fe. The cells were cultured at 37° C., in a humid 5% CO2, 95% air environment in regular RPMI-1640 medium (Invitrogen) supplemented with 5% fetal calf serum (FCS).
After 2 days of culture, RIN-m cells (5×10^4 cells/well in 96-well plates) were treated with corrole 1C-Fe (1-50 μM) before addition of 35 μM of H2O2. Cell viability was evaluated by a colorimetric assay for mitochondrial function estimation using the MTT test as previously described (Gassen et al., 1998) and expressed as percentage of control.
RIN-m cells were grown as described in Example 5. After 3 days of culture, RIN-m cells (2.5×10^4 cells/well in 96-well plates) were treated with corroles 1C-Fe or 5C-Fe or porphyrin 1P-Fe (1 and 20 μM), added 30 min prior to treatment with 35 μM H2O2 and further incubated for 24 h. Cell injury was evaluated by MTT test. […] […].
Protective effect of iron(III) corrole complexes against H2O2-induced toxicity (150 μM) was compared to that of manganese(III) corroles and related porphyrin. […].

Structure (SMILES)	IC50 [1] [µM]	kcat, peroxynitrite decomposition rate [2] [M⁻¹ s⁻¹]	also measured
O=S(=O)(O)c1cc2[n]3c1C(c1c(F)c(F)c(F)c(F)c1F)=C1C=CC4=[N+]1[Cu-]31[n]3c(cc(S(=O)(=O)O)c3-2)C(c2c(F)c(F)c(F)c(F)c2F)=c2ccc([n]21)=C4c1c(F)c(F)c(F)c(F)c1F (stereo not drawn) [1C-Cu, 2,17-bis(sulfonato)-5,10,15-tris(pentafluorophenyl)-corrolato copper(III)]	12	–	–
COc1ccc(C2=c3ccc4[n]3[Mn-]35[n]6c(ccc6-c6ccc([n]63)C=4c3cc[n+](C)cc3)C(c3cc[n+](C)cc3)=C3C=CC2=[N+]35)cc1 (stereo not drawn) [2C′-Mn]	–	77000	–
C[n+]1ccc(C2=C3C=CC4=[N+]3[Mn-]35[n]6c2ccc6-c2ccc([n]23)C(c2cc[n+](C)cc2)=c2ccc([n]25)=C4c2ccccc2)cc1 (stereo not drawn) [2C″-Mn]	–	81000	–
C[n+]1ccc(C2=C3C=CC4=[N+]3[Mn-]35[n]6c2ccc6C(c2c(F)c(F)c(F)c(F)c2F)=C2C=CC(=[N+]23)C(c2cc[n+](C)cc2)=c2ccc([n]25)=C4c2c(F)c(F)c(F)c(F)c2F)cc1.[I-].[I-] (stereo not drawn) [2P-Mn, 5,15-bis(N-methyl-4-pyridilium)-10,20-bis-(pentafluoro-phenyl)porphyrinato manganese(III) diiodide salt, reference compound]	–	–	cytoprotective effect against H2O2-induced toxicity (RIN-m cells): totally inefficient; also recorded: inefficiency
C[n+]1ccccc1C1=C2C=CC3=[N+]2[Mn-]24[n]5c1ccc5-c1ccc([n]12)C(c1cccc[n+]1C)=c1ccc([n]14)=C3c1c(F)c(F)c(F)c(F)c1F (stereo not drawn) [4C-Mn, 5,15-bis(N-methyl-2-pyridilium) 10-pentafluorophenyl corrolato manganese(III)]	–	160000	–
COc1c(F)c(F)c(C2=C3C=CC4=[N+]3[Fe-]35[n]6c(cc(S(=O)(=O)O)c62)-c2c(S(=O)(=O)O)cc([n]23)C(c2c(F)c(F)c(OC)c(F)c2F)=c2ccc([n]25)=C4c2c(F)c(F)c(OC)c(F)c2F)c(F)c1F (stereo not drawn) [6C-Fe, 2,17-bis-sulfonato-5,10,15-tris(p-methoxy-tetra-fluorophenyl)iron(III) corrole]	1.18	–	–
